Columns and labels:
Type in all cases: in vivo
[1] = test system: barnyardgrass (Echinochloa crus-galli); test: Test G Pre-Emergence Protocol; details: Echinochloa crus-galli, pre-emergence, 312 h, evaluated after 13 days; for pest or weed control at 15.625 g/ha: 15.625 g ai/ha, read-out: Barnyard grass damage rating (100=total damage to plant; 0=no damage to plant); for pest or weed control at 62.5 g/ha: 62.5 g ai/ha, 100=total damage to plant, 0=no damage to plant, read-out: plant damage rating, Barnyardgrass; for pest or weed control at 250 g/ha: 250 g ai/ha, read-out: Barnyardgrass damage rating (100=total damage to plant; 0=no damage to plant)
Summary of the method: (§1)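 Scores are visual damage ratings from 0 (no damage) to 100 (total plant kill), taken 13 days after treatment. Compound was sprayed one day post-sowing at 15.625, 62.5 or 250 g/ha in 50:50 acetone/water with 0.5% Tween 20.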

corn (Zea mays) [2] = test: Test G Pre-Emergence Protocol; details: Zea mays, pre-emergence, 312 h, evaluated after 13 days; for plant injury at 15.625 g/ha: 15.625 g ai/ha; for plant injury at 15.625 g/ha / plant injury at 250 g/ha: read-out: Corn damage rating (100=total damage to plant; 0=no damage to plant); for plant injury at 62.5 g/ha: 62.5 g ai/ha, 100=total damage to plant, 0=no damage to plant, read-out: plant damage rating, Corn; for plant injury at 250 g/ha: 250 g ai/ha
Summary of the method: as §1

[3] = test system: giant foxtail (Setaria faberi); test: Test G Pre-Emergence Protocol; details: Setaria faberi, pre-emergence, 312 h, evaluated after 13 days; for pest or weed control at 15.625 g/ha: 15.625 g ai/ha; for pest or weed control at 15.625 g/ha / pest or weed control at 250 g/ha: read-out: Foxtail, Giant damage rating (100=total damage to plant; 0=no damage to plant); for pest or weed control at 62.5 g/ha: 62.5 g ai/ha, 100=total damage to plant, 0=no damage to plant, read-out: plant damage rating, Foxtail, Giant; for pest or weed control at 250 g/ha: 250 g ai/ha
Summary of the method: as §1

[4] = test system: ivy-leaved morning glory (Ipomoea hederacea); test: Test G Pre-Emergence Protocol; details: Ipomoea, pre-emergence, 312 h, evaluated after 13 days; for pest or weed control at 15.625 g/ha: 15.625 g ai/ha, read-out: Morning-glory, Ivy-leaved damage rating (100=total damage to plant; 0=no damage to plant); for pest or weed control at 62.5 g/ha: 62.5 g ai/ha, 100=total damage to plant, 0=no damage to plant, read-out: plant damage rating, Morningglory, Ivy-leaved; for pest or weed control at 250 g/ha: 250 g ai/ha, read-out: Morningglory, Ivy-leaved damage rating (100=total damage to plant; 0=no damage to plant)
Summary of the method: as §1

[5] = test system: redroot pigweed (Amaranthus retroflexus); test: Test G Pre-Emergence Protocol; details: Amaranthus retroflexus, pre-emergence, 312 h, evaluated after 13 days; for pest or weed control at 15.625 g/ha: 15.625 g ai/ha; for pest or weed control at 15.625 g/ha / pest or weed control at 250 g/ha: read-out: Pigweed, Redroot damage rating (100=total damage to plant; 0=no damage to plant); for pest or weed control at 62.5 g/ha: 62.5 g ai/ha, 100=total damage to plant, 0=no damage to plant, read-out: plant damage rating, Pigweed, Redroot; for pest or weed control at 250 g/ha: 250 g ai/ha
Summary of the method: as §1

[6] = test system: velvetleaf (Abutilon theophrasti); test: Test G Pre-Emergence Protocol; details: Abutilon theophrasti, pre-emergence, 312 h, evaluated after 13 days; for pest or weed control at 15.625 g/ha: 15.625 g ai/ha; for pest or weed control at 15.625 g/ha / pest or weed control at 250 g/ha: read-out: Velvetleaf damage rating (100=total damage to plant; 0=no damage to plant); for pest or weed control at 62.5 g/ha: 62.5 g ai/ha, 100=total damage to plant, 0=no damage to plant, read-out: plant damage rating, Velvetleaf; for pest or weed control at 250 g/ha: 250 g ai/ha
Summary of the method: as §1

[7] = test system: barnyardgrass (Echinochloa crus-galli); test: Test G Post-Emergence Protocol; details: Echinochloa crus-galli, post-emergence, 312 h; for pest or weed control at 15.625 g/ha: 15.625 g ai/ha, evaluated after 13 days (100=total damage to plant; 0=no damage to plant), read-out: Barnyardgrass damage rating; for pest or weed control at 62.5 g/ha: 62.5 g ai/ha, read-out: Barnyardgrass damage rating (100=total damage to plant; 0=no damage to plant); for pest or weed control at 62.5 g/ha / pest or weed control at 250 g/ha: evaluated after 13 days; for pest or weed control at 250 g/ha: 250 g ai/ha, read-out: damage to plant, Barnyardgrass (100=total damage to plant; 0=no damage to plant)
Summary of the method: (§2)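 Pot-grown seedlings, 8 days old, raised in a glasshouse at 24/16 °C day/night with 14 h light and 65% humidity, were sprayed post-emergence with test compound in acetone/water (50:50) plus 0.5% Tween 20 at 15.625, 62.5 or 250 g/ha. Damage was scored visually 13 days later on a 0–100 scale (100 = total damage).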

corn (Zea mays) [8] = test: Test G Post-Emergence Protocol; details: Zea mays, post-emergence, 312 h; for plant injury at 15.625 g/ha: 15.625 g ai/ha, evaluated after 13 days (100=total damage to plant; 0=no damage to plant), read-out: Corn damage rating; for plant injury at 62.5 g/ha: 62.5 g ai/ha, read-out: Corn damage rating (100=total damage to plant; 0=no damage to plant); for plant injury at 62.5 g/ha / plant injury at 250 g/ha: evaluated after 13 days; for plant injury at 250 g/ha: 250 g ai/ha, read-out: damage to plant, Corn (100=total damage to plant; 0=no damage to plant)
Summary of the method: as §2

[9] = test system: giant foxtail (Setaria faberi); test: Test G Post-Emergence Protocol; details: Setaria faberi, post-emergence, 312 h; for pest or weed control at 15.625 g/ha: 15.625 g ai/ha, evaluated after 13 days (100=total damage to plant; 0=no damage to plant), read-out: Foxtail, Giant damage rating; for pest or weed control at 62.5 g/ha: 62.5 g ai/ha, read-out: Foxtail, Giant damage rating (100=total damage to plant; 0=no damage to plant); for pest or weed control at 62.5 g/ha / pest or weed control at 250 g/ha: evaluated after 13 days; for pest or weed control at 250 g/ha: 250 g ai/ha, read-out: damage to plant, Foxtail, Giant (100=total damage to plant; 0=no damage to plant)
Summary of the method: as §2

[10] = test system: ivy-leaved morning glory (Ipomoea hederacea); test: Test G Post-Emergence Protocol; details: Ipomoea, post-emergence, 312 h; for pest or weed control at 15.625 g/ha: 15.625 g ai/ha, evaluated after 13 days (100=total damage to plant; 0=no damage to plant), read-out: Morningglory, Ivy-leaved damage rating; for pest or weed control at 62.5 g/ha: 62.5 g ai/ha, read-out: Morningglory, Ivy-leaved damage rating (100=total damage to plant; 0=no damage to plant); for pest or weed control at 62.5 g/ha / pest or weed control at 250 g/ha: evaluated after 13 days; for pest or weed control at 250 g/ha: 250 g ai/ha, read-out: damage to plant, Morningglory, Ivy-leaved (100=total damage to plant; 0=no damage to plant)
Summary of the method: as §2

[11] = test system: redroot pigweed (Amaranthus retroflexus); test: Test G Post-Emergence Protocol; details: Amaranthus retroflexus, post-emergence, 312 h; for pest or weed control at 15.625 g/ha: 15.625 g ai/ha, evaluated after 13 days (100=total damage to plant; 0=no damage to plant), read-out: Pigweed, Redroot damage rating; for pest or weed control at 62.5 g/ha: 62.5 g ai/ha, read-out: Pigweed, Redroot damage rating (100=total damage to plant; 0=no damage to plant); for pest or weed control at 62.5 g/ha / pest or weed control at 250 g/ha: evaluated after 13 days; for pest or weed control at 250 g/ha: 250 g ai/ha, read-out: damage to plant, Pigweed, Redroot (100=total damage to plant; 0=no damage to plant)
Summary of the method: as §2

[12] = test system: velvetleaf (Abutilon theophrasti); test: Test G Post-Emergence Protocol; details: Abutilon theophrasti, post-emergence, 312 h; for pest or weed control at 15.625 g/ha: 15.625 g ai/ha, evaluated after 13 days (100=total damage to plant; 0=no damage to plant), read-out: Velvetleaf damage rating; for pest or weed control at 62.5 g/ha: 62.5 g ai/ha, read-out: Velvetleaf damage rating (100=total damage to plant; 0=no damage to plant); for pest or weed control at 62.5 g/ha / pest or weed control at 250 g/ha: evaluated after 13 days; for pest or weed control at 250 g/ha: 250 g ai/ha, read-out: damage to plant, Velvetleaf (100=total damage to plant; 0=no damage to plant)
Summary of the method: as §2

SMILES | pest or weed control at 15.625 g/ha [1] [%] | pest or weed control at 62.5 g/ha [1] [%] | pest or weed control at 250 g/ha [1] [%] | plant injury at 15.625 g/ha (corn (Zea mays) [2]) [%] | plant injury at 62.5 g/ha (corn (Zea mays) [2]) [%] | plant injury at 250 g/ha (corn (Zea mays) [2]) [%] | pest or weed control at 15.625 g/ha [3] [%] | pest or weed control at 62.5 g/ha [3] [%] | pest or weed control at 250 g/ha [3] [%] | pest or weed control at 15.625 g/ha [4] [%] | pest or weed control at 62.5 g/ha [4] [%] | pest or weed control at 250 g/ha [4] [%] | pest or weed control at 15.625 g/ha [5] [%] | pest or weed control at 62.5 g/ha [5] [%] | pest or weed control at 250 g/ha [5] [%] | pest or weed control at 15.625 g/ha [6] [%] | pest or weed control at 62.5 g/ha [6] [%] | pest or weed control at 250 g/ha [6] [%] | pest or weed control at 15.625 g/ha [7] [%] | pest or weed control at 62.5 g/ha [7] [%] | other results
Cc1cc(Cl)ncc1NC(=O)[C@@H]1C(=O)N(C)C[C@H]1c1ccc(C(F)(F)F)cc1 (racemic) [Compound 1578] | 0 | 0 | 0 | 0 | 0 | 10 | 0 | 0 | 60 | 0 | 0 | 0 | 0 | 0 | 20 | 0 | 0 | 10 | 0 | 20 | pest or weed control at 250 g/ha [7]: 20%; plant injury at 15.625 g/ha (corn (Zea mays) [8]): 0%; plant injury at 62.5 g/ha (corn (Zea mays) [8]): 0%; plant injury at 250 g/ha (corn (Zea mays) [8]): 10%; pest or weed control at 15.625 g/ha [9]: 0%; pest or weed control at 62.5 g/ha [9]: 10%; pest or weed control at 250 g/ha [9]: 60%; pest or weed control at 15.625 g/ha [10]: 0%; pest or weed control at 62.5 g/ha [10]: 10%; pest or weed control at 250 g/ha [10]: 30%; pest or weed control at 15.625 g/ha [11]: 0%; pest or weed control at 62.5 g/ha [11]: 20%; pest or weed control at 250 g/ha [11]: 30%; pest or weed control at 15.625 g/ha [12]: 20%; pest or weed control at 62.5 g/ha [12]: 10%; pest or weed control at 250 g/ha [12]: 20%
CN1C[C@H](c2cccc(C(F)F)c2)[C@@H](C(=O)Nc2cccc(F)c2F)C1=O (racemic) [Compound 1588] | 80 | 90 | 90 | 40 | 60 | 80 | 70 | 80 | 90 | 20 | 0 | 80 | 0 | 40 | 70 | 0 | 10 | 20 | 80 | 80 | pest or weed control at 250 g/ha [7]: 80%; plant injury at 15.625 g/ha (corn (Zea mays) [8]): 60%; plant injury at 62.5 g/ha (corn (Zea mays) [8]): 80%; plant injury at 250 g/ha (corn (Zea mays) [8]): 80%; pest or weed control at 15.625 g/ha [9]: 60%; pest or weed control at 62.5 g/ha [9]: 70%; pest or weed control at 250 g/ha [9]: 70%; pest or weed control at 15.625 g/ha [10]: 70%; pest or weed control at 62.5 g/ha [10]: 20%; pest or weed control at 250 g/ha [10]: 50%; pest or weed control at 15.625 g/ha [11]: 0%; pest or weed control at 62.5 g/ha [11]: 0%; pest or weed control at 250 g/ha [11]: 20%; pest or weed control at 15.625 g/ha [12]: 0%; pest or weed control at 62.5 g/ha [12]: 0%; pest or weed control at 250 g/ha [12]: 40%
COc1cc(NC(=O)[C@@H]2C(=O)N(C)C[C@H]2c2ccc(C(F)(F)F)cc2)ccn1 (racemic) [Compound 1589] | 0 | 0 | 0 | 0 | 0 | 0 | 0 | 0 | 0 | 0 | 0 | 0 | 0 | 0 | 0 | 0 | 0 | 0 | 0 | 0 | pest or weed control at 250 g/ha [7]: 0%; plant injury at 15.625 g/ha (corn (Zea mays) [8]): 0%; plant injury at 62.5 g/ha (corn (Zea mays) [8]): 0%; plant injury at 250 g/ha (corn (Zea mays) [8]): 0%; pest or weed control at 15.625 g/ha [9]: 0%; pest or weed control at 62.5 g/ha [9]: 0%; pest or weed control at 250 g/ha [9]: 0%; pest or weed control at 15.625 g/ha [10]: 0%; pest or weed control at 62.5 g/ha [10]: 0%; pest or weed control at 250 g/ha [10]: 0%; pest or weed control at 15.625 g/ha [11]: 0%; pest or weed control at 62.5 g/ha [11]: 0%; pest or weed control at 250 g/ha [11]: 0%; pest or weed control at 15.625 g/ha [12]: 0%; pest or weed control at 62.5 g/ha [12]: 0%; pest or weed control at 250 g/ha [12]: 0%

— patent US12077503B2, “Substituted cyclic amides and their use as herbicides” (FMC CORPORATION, priority 2015, dated 2024)
